Experimental data reported in patent US7855076B2, “Use of discoidin domain receptor 1 (DDR1) and agents that affect the DDR1/collagen pathway” (The United States of America as represented by the …, priority 2002, dated 2010).

Experiments:
Assay type in all cases: cell-based, human
[1] = test system: DDR1 mRNA; assay: DDR1 mRNA expression in PBMC by Northern blotting; settings: 8 hours, TNF-α 5 ng/ml, IL-1β 10 ng/ml, IFN-γ 50 U/ml, GM-CSF 10 ng/ml, LPS 1 μg/ml, PHA 5 μg/ml
Method: PMN and PBMC were maintained at a density of 5×10^6 cells/ml in the complete medium in six-well tissue culture cluster (Coster, Cambridge, Mass.; 3 ml/well). Total RNA was extracted from each culture by using TRIZOL® Reagent. PolyA mRNA was purified on Oligotex columns (Qiagen, Valencia, Calif.). Northern blot analysis was performed as described (Yoshimura, J. Immunol. 150:5025, 1993), except that ULTRAhyb (Ambion) was used. A human DDR1 cDNA (757-bp) was obtained by PCR from a U-105 human glioblastoma cell line cDNA library and was ligated into the EcoRI/HindIII site of the pBluescript (Stratagene, La Jolla, Calif.). The sense primer was 5′-[…]-3′ (SEQ ID NO: 2; corresponding to residues between 68 and 87 in the nucleotide sequence of the trkE cDNA, GenBank accession number X74979) and the antisense primer was 5′-[…]-3′ (SEQ ID NO: 3; corresponding to residues between 805 and 824 in the nucleotide sequence of the trkE cDNA).
Freshly isolated PBMC expressed only a low level of DDR1 mRNA. The expression level was increased about eightfold when the cells were incubated in either RPMI 1640 or RPMI 1640 containing 10% FCS.

[2] = test system: DDR1 protein; assay: DDR1 protein expression in leukocytes by immunoprecipitation and Western blotting
Method: For Western blot analysis, cell lysates were prepared from freshly isolated PBMC, PBMC incubated overnight in RPMI 1640 containing 10% FCS, and MCF-7 cells. Cells were lysed on ice for 20 minutes in a buffer containing 50 mM Hepes, 150 mM NaCl, 1% Triton X-100, 10% glycerol, 10 mM NaF, 1 mM ethylenediamine tetraacetic acid, […], 1 mg/ml leupeptin, 1 mM phenylmethylsulfonyl fluoride, 1 mg/ml aprotinin, and 1 mg/ml pepstatin A. The lysates were spun, and the supernatants were collected. The samples were incubated with approximately 20 μl packed volume of PGS for 1 hour at 4° C. After centrifugation, supernatants were collected, mixed with 1 μg/ml normal rabbit IgG or polyclonal anti-human DDR1 IgG, and incubated for 1 hour at 4° C. PGS (20 μl) was then added and incubated for another 1 hour. IgG-coupled PGS was washed with the buffer containing 50 mM Hepes, 150 mM NaCl, 0.1% Triton X-100, 10% glycerol buffer three times, and 20 μl double-strength sample buffer (20% glycerol, 6% sodium dodecylsulfate (SDS), 10% 2-mercaptoethanol) was added. The samples were boiled for 10, minutes. Eluted proteins were analyzed on 7.5% polyacrylamide gels by SDS polyacrylamide gel electrophoresis (SDS-PAGE) and transferred electrophoretically to nitrocellulose membranes (Amersham, Arlington Heights, Ill.) at 200 mA for 2 hours by a semi-dry system. The membranes were incubated with polyclonal anti-human DDR1 or anti-phosphotyrosine IgG, followed by sheep anti-mouse IgG coupled with horseradish peroxidase (Amersham). Peroxidase activity was visualized by the Enhanced Chemiluminescence Detection System (Amersham).
There was no detectable DDR1 protein in freshly isolated PBMC. DDR1 protein was detected clearly after overnight incubation in RPMI 1640 containing 10% FCS. In order to study the kinetics of DDR1 protein expression, PBMC were incubated with or withour addition of TNF-α (5 ng/ml), or GM-CSF (10 ng/ml) for 36 hours and cell lysates were prepared. Cell lysates were subjected to immunoprecipitation with anti-DDR1 IgG or control IgG. […]

[3] = test system: DDR1; assay: Cell-surface DDR1 expression on PMN by flow cytometry; settings: 24 hours
Method: PMN were incubated in presence of IFN-γ or GM-CSF for 24 hours and the expression of cell-surface DDR1 was measured by flow cytometry using an antibody raised against the extracellular domain of the receptor. One hundred thousand cells were suspended in 50 μl of cold PBS containing 0.1% NaN3, […] BSA and 200 μg/ml human IgG in a Falcon 2052, tube, and incubated for 10 minutes on ice. One μg of anti-DDR1 rabbit polyclonal antibody raised aginst the N-terminus of DDR1 (Transgenic, Inc., Kumamoto, Japan), or control mouse IgG was added to each tube and the cells were incubated for another 15 minutes on ice. The cells were washed with PBS, and then incubated with 1 μg of FITC-conjugated goat anti-mouse IgG for 15 minutes on ice. At the end of incubation, PI was added to each tube (100 μM). The cells were washed by PBS, and subsequently analyzed by using a FACS scan (Becton Dickinson). Dead cells, determined by the incorporation of PI, were gated out. Results were processed by using the Cellquest software (Becton Dickinson).

[4] = test system: THP-1 cells; assay: Cell migration assay, 24-well BioCoat Insert Chamber; settings: parental, mock-infected and DDR1a-overexpressing THP-1 cells; MCP-1 10 ng/ml in outer wells, membrane only, 3 hours
Method: Migration of each cell type in response to medium (open column) or MCP-1 (closed column) was measured in the 24-well BioCoat Insert Chamber as described in Example 1 below. In FIG. 3A, results are shown from experiments where inner wells and outer wells were separated by a membrane only. Chambers were incubated at 37° C. for 3 hours. In FIG. 3B, results are shown from experiments where approximately 3 mm of collagen lattice was created above the membrane. Chambers were incubated at 37° C. for 8 hours. The number of migrated cells was counted in each 400× magnified field. The results were presented as migration index denoting the fold increase of cell migration over control (the number of migrated parental cells=1). Data are representative of three experiments with two independent clones overexpressing either DDR1, a or DDR1b.
The cell migration assay was performed by using the 24-well BioCoat Insert Chamber (Becton Dickinson, Bedford, Mass.). […] After a 3-hour incubation at 37° C., the numbers of cells that were adhering on the other side of the membrane and also had fallen into the outer wells were counted. […] After an 8-hour incubation at 37° C., the numbers of cells that were adhering on the other side of the membrane and also had fallen into the outer wells were counted. […]

[5] = test system: THP-1 cells; assay: Adherence of THP-1 cells to coated plates; settings: plates coated with fibronectin; DDR1a- and DDR1b-overexpressing cells
Method: 5×10^5 cells/ml were cultured on either BSA (10 mg/ml)- or collagen (20 μg/ml) and BSA-coated plates for 30 (FIG. 2A) or 120 minutes (FIG. 2B) at 37° C. in a 5% CO2 humidified incubator. Normal mouse IgG or anti-β1 integrin blocking IgG was added to measure the effect of β1 integrin in the assay. The number of adherent cells in each 400× visual field was counted. The results are presented as means ±SE of four individual fields. Data are representative of three experiments with two independent clones overexpressing either DDR1a or DDR1b.
To determine the effects of collagen on the functions of DDR1a- and DDR1b-overexpressing THP-1 cells, the cells were incubated on collagen-coated plastic plates. Twenty-four-well plates were coated with 100 μl/well human collagen type I (20 μg/ml) overnight at 4° C., and then with 200 μl/well 10 mg/ml bovine serum albumin (BSA) for 1 hour at 37° C. Cells were plated at the cell density of 1×10^5 cells/ml to the coated wells and were incubated for 30 minutes at 37° C. in 5% CO2 humidified atmosphere. Nonadherent cells were removed by washing three times with PBS. Cells that remained on the coated surface were considered to be adherent, and the number of cells in each 400 field was counted. Results were presented as mean ±SE per 400 field.

[6] = test system: PMN; assay: MCP-1 release by PMN (neutrophils), ELISA
Method: Human PMN and peripheral blood mononuclear cells (PBMC) were obtained from heparinized blood from human donors (10 units of heparin per ml of blood). One volume of 5% dextran (T-500 Pharmacia, Piscataway, N.J.) in phosphate buffered saline (PBS) was added to three volumes of blood in 50 ml polypropylene tubes. After a 40 minute incubation at room temperature, the leukocyte-rich plasma layer was removed and overlaid onto Lymphoprep in 50 ml tubes and the tubes were centrifuged at 800×g for 20 minutes at room temperature. PMN were separated from erythrocytes by lysis in 0.2% NaCl, washed in complete medium three times at 4° C. and resuspended in complete medium. PBMC contained in the PMN preparations obtained by this method were less than 0.5% by morphologic examination. Cell viability was higher than 98% by trypan blue staining.
A panel of cytokines was previously tested for their ability to induce MCP-1 production in PMN and it was reported that TNF-α and IFN-γ could cooperate to induce a high level of MCP-1 production (Yamashiro et al., J. Leukoc. Biol. 69:698, 2001). […] The majority of MCP-1 was released between 24 hours and 48 hours, showing a delayed kinetics of MCP-1 release. […] The effect of IFN-γ was dose-dependent.
To confirm that activation of DDR1 was responsible for the increased release of MCP-1 by PMN treated with IFN-γ and collagen, 513 anti-DDR1 Ab was used instead of collagen. The concentrations of MCP-1 were measured in the Lymphokine Testing Laboratory, Clinical Services Program, SAIC-Frederick (Frederick, Md.) with an ELISA kit (R&D Systems) specific for human MCP-1.

Molecule: GM-CSF: human recombinant granulocyte macrophage-colony stimulating factor
- level of DDR1 mRNA expression [1]: further augmented
- level of DDR1 protein expression ([2]; PBMC, TNF-α 5 ng/ml or GM-CSF 10 ng/ml, 36 hours): increased
- DDR1 protein expression ([2]; monocytes): increased
- level of DDR1 expression [3]: slightly increased

Molecule: MCP-1: human recombinant monocyte chemoattractant protein-1
- migration of cells [4]: increased two- to threefold

Molecule: fibronectin [reference compound]
- adherence or shape change [5]: no effect

B1: IFN-γ: human recombinant interferon-γ (protein, UniProt P01579 24-161, looked up)
Interferon gamma: QDPYVKEAENLKKYFNAGHSDVADNGTLFLGILKNWKEESDRKIMQSQIVSFYFKLFKNFKDDQSIQKSVETIKEDMNVKFFNSNKKKRDDFEKLTNYSVTDLNVQRKAIHELIQVMAELSPAAKTGKRKRSQMLFRG
- level of DDR1 mRNA expression [1]: partially inhibited
- MCP-1 production ([6]; PMN on collagen-coated plates with IFN-γ): potent synergistic effect
- MCP-1 release ([6]; PMN, IFN-γ alone, uncoated plates): no significant MCP-1 release
- dose dependence of effect on MCP-1 release ([6]; PMN, collagen-coated plates): dose-dependent
- level of DDR1 expression [3]: markedly increased
